According to US20220213047A1, “CARBONIC ANHYDRASE INHIBITORS FOR TREATMENT OF NEISSERIA GONORRHOEAE INFECTION” (Purdue Research Foundation, priority 2021, published 2022):
Converted amounts (≈) assume the structure as drawn.

Experiments:
ATCC strain 700825 = assay: MICs against ATCC strain 700825; type: cell-based, N. gonorrhoeae; details: Neisseria gonorrhoeae
Experimental: (§1) These tests were performed in normal culture conditions with standard CO2 levels and in CO2 (5% in incubator) conditions.

N. gonorrhoeae = assay: MIC against N. gonorrhoeae clinical isolates, normal and CO2 conditions; type: cell-based; details: Neisseria gonorrhoeae
Experimental: as §1

[1] = tested on: intracellular N. gonorrhoeae; assay: Intracellular clearance of N. gonorrhoeae in infected endocervical cells (End1/E6E7); type: cell-based; details: 5×MIC, 24 hours
Excerpt: Intracellular clearance of N. gonorrhoeae—N. gonorrhoeae is known to invade epithelial cells of the genital tract and cross the epithelial barrier into the subepithelial space^59. Previous studies have shown that N. gonorrhoeae can survive inside host cells and pass epithelial cell layers (a key step in causing disseminated infections)^60,61. Therefore, a drug candidate must also be able to kill intracellular N. gonorrhoeae in order to be an effective therapeutic. Also, we were concerned that CAIs have reduced activity in high-CO2 conditions and may not be suitable to treat intracellular infection. Thus, we examined CAIs ability to reduce the burden of intracellular N. gonorrhoeae present in infected endocervical cells^56.

[2] = N. gonorrhoeae 178, Non CO2 environment
[3] = N. gonorrhoeae 178, normal growth environment (with CO2)
[4] = N. gonorrhoeae 181, Non CO2 environment
[5] = N. gonorrhoeae 181, normal growth environment (with CO2)
[6] = N. gonorrhoeae 194, Non CO2 environment
[7] = N. gonorrhoeae 194, normal growth environment (with CO2)

SMILES: NS(=O)(=O)c1nnc(NC(=O)CC2CC2)s1 [CAI 0040]
- MIC (ATCC strain 700825; ATCC700825, In CO2): 32 µg/mL (≈ 122 µM)
- MIC (ATCC strain 700825; ATCC700825, In air): 16 µg/mL (≈ 61 µM)

SMILES: CC(C)(C)C(=O)Nc1nnc(S(N)(=O)=O)s1 [CAI 0010]
- MIC (N. gonorrhoeae; [2]): 32 µg/mL (≈ 121 µM)
- MIC (N. gonorrhoeae; [3]): 32 µg/mL (≈ 121 µM)
- MIC (N. gonorrhoeae; [4]): 32 µg/mL (≈ 121 µM)
- MIC (N. gonorrhoeae; [5]): > 64 µg/mL
- MIC (N. gonorrhoeae; [6]): 32 µg/mL (≈ 121 µM)
- MIC (N. gonorrhoeae; [7]): 64 µg/mL (≈ 242 µM)

SMILES: CO/N=C(\C(=O)N[C@@H]1C(=O)N2C(C(=O)O)=C(CSc3nc(=O)c(=O)[nH]n3C)CS[C@H]12)c1csc(N)n1 [ceftriaxone]
- reduction in N. gonorrhoeae inside infected endocervical cells [1]: 0.32 log10

SMILES: NS(=O)(=O)c1nnc(NC(=O)c2cccc(C(F)(F)F)c2)s1 [CAI 0038]
- MIC (N. gonorrhoeae; [2]): 1 µg/mL (≈ 2.84 µM)
- MIC (N. gonorrhoeae; [3]): > 64 µg/mL
- MIC (N. gonorrhoeae; [4]): 4 µg/mL (≈ 11.4 µM)
- MIC (N. gonorrhoeae; [5]): 64 µg/mL (≈ 182 µM)
- MIC (N. gonorrhoeae; [6]): 2 µg/mL (≈ 5.68 µM)
- MIC (N. gonorrhoeae; [7]): > 64 µg/mL

SMILES: NS(=O)(=O)c1nnc(NC(=O)C2CCC2)s1 [CAI 0018]
- MIC (N. gonorrhoeae; [2]): 16 µg/mL (≈ 61 µM)
- MIC (N. gonorrhoeae; [3]): 64 µg/mL (≈ 244 µM)
- MIC (N. gonorrhoeae; [4]): 16 µg/mL (≈ 61 µM)
- MIC (N. gonorrhoeae; [5]): > 64 µg/mL
- MIC (N. gonorrhoeae; [6]): 8 µg/mL (≈ 30.5 µM)
- MIC (N. gonorrhoeae; [7]): 32 µg/mL (≈ 122 µM)

SMILES: CC(C)CC(=O)Nc1nnc(S(N)(=O)=O)s1 [CAI 0026]
- MIC (N. gonorrhoeae; [2]): 8 µg/mL (≈ 30.3 µM)
- MIC (N. gonorrhoeae; [3]): 32 µg/mL (≈ 121 µM)
- MIC (N. gonorrhoeae; [4]): 8 µg/mL (≈ 30.3 µM)
- MIC (N. gonorrhoeae; [5]): > 64 µg/mL
- MIC (N. gonorrhoeae; [6]): 4 µg/mL (≈ 15.1 µM)
- MIC (N. gonorrhoeae; [7]): > 64 µg/mL

SMILES: CCCC(=O)Nc1nnc(S(N)(=O)=O)s1 [CAI 0013]
- MIC (N. gonorrhoeae; [3]): 8 µg/mL (≈ 32 µM)
- MIC (N. gonorrhoeae; [4]): 8 µg/mL (≈ 32 µM)
- MIC (N. gonorrhoeae; [5]): 32 µg/mL (≈ 128 µM)
- MIC (N. gonorrhoeae; [6]): 4 µg/mL (≈ 16 µM)
- MIC (N. gonorrhoeae; [7]): 8 µg/mL (≈ 32 µM)

SMILES: CC(C)C(=O)Nc1nnc(S(N)(=O)=O)s1 [CAI 0011]
- MIC (N. gonorrhoeae; [2]): 16 µg/mL (≈ 63.9 µM)
- MIC (N. gonorrhoeae; [3]): 32 µg/mL (≈ 128 µM)
- MIC (N. gonorrhoeae; [4]): 16 µg/mL (≈ 63.9 µM)
- MIC (N. gonorrhoeae; [5]): > 64 µg/mL
- MIC (N. gonorrhoeae; [6]): 8 µg/mL (≈ 32 µM)
- MIC (N. gonorrhoeae; [7]): 64 µg/mL (≈ 256 µM)

SMILES: CCN[C@H]1CN(CCCOC)S(=O)(=O)c2sc(S(N)(=O)=O)cc21 [Brinzolamide]
- MIC (N. gonorrhoeae; [2]): > 64 µg/mL
- MIC (N. gonorrhoeae; [3]): > 64 µg/mL
- MIC (N. gonorrhoeae; [4]): > 64 µg/mL
- MIC (N. gonorrhoeae; [5]): > 64 µg/mL
- MIC (N. gonorrhoeae; [6]): > 64 µg/mL
- MIC (N. gonorrhoeae; [7]): > 64 µg/mL

SMILES: NS(=O)(=O)c1nnc(NC(=O)CCC2CCCCC2)s1 [CAI 0019]
- MIC (N. gonorrhoeae; [2]): 4 µg/mL (≈ 12.6 µM)
- MIC (N. gonorrhoeae; [3]): 64 µg/mL (≈ 201 µM)
- MIC (N. gonorrhoeae; [4]): 1 µg/mL (≈ 3.14 µM)
- MIC (N. gonorrhoeae; [5]): 64 µg/mL (≈ 201 µM)
- MIC (N. gonorrhoeae; [6]): 2 µg/mL (≈ 6.28 µM)
- MIC (N. gonorrhoeae; [7]): > 64 µg/mL
- MIC (ATCC strain 700825; ATCC700825, In CO2): 32 µg/mL (≈ 100 µM)
- MIC (ATCC strain 700825; ATCC700825, In air): 4 µg/mL (≈ 12.6 µM)

SMILES: NS(=O)(=O)c1nnc(NC(=O)CC2CCCC2)s1 [CAI 0021]
- MIC (N. gonorrhoeae; [2]): 2 µg/mL (≈ 6.89 µM)
- MIC (N. gonorrhoeae; [3]): 64 µg/mL (≈ 220 µM)
- MIC (N. gonorrhoeae; [4]): 1 µg/mL (≈ 3.44 µM)
- MIC (N. gonorrhoeae; [5]): > 64 µg/mL
- MIC (N. gonorrhoeae; [6]): 4 µg/mL (≈ 13.8 µM)
- MIC (N. gonorrhoeae; [7]): > 64 µg/mL

SMILES: NS(=O)(=O)c1nnc(NC(=O)CCC2CCCC2)s1 [CAI 0015]
- MIC (N. gonorrhoeae; [2]): 2 µg/mL (≈ 6.57 µM)
- MIC (N. gonorrhoeae; [3]): 16 µg/mL (≈ 52.6 µM)
- MIC (N. gonorrhoeae; [4]): 1 µg/mL (≈ 3.29 µM)
- MIC (N. gonorrhoeae; [5]): > 64 µg/mL
- MIC (N. gonorrhoeae; [6]): 4 µg/mL (≈ 13.1 µM)
- MIC (N. gonorrhoeae; [7]): 64 µg/mL (≈ 210 µM)

SMILES: Nc1nnc(S(N)(=O)=O)s1 [CAI 0034]
- MIC (N. gonorrhoeae; [2]): 1 µg/mL (≈ 5.55 µM)
- MIC (N. gonorrhoeae; [3]): > 64 µg/mL
- MIC (N. gonorrhoeae; [4]): 4 µg/mL (≈ 22.2 µM)
- MIC (N. gonorrhoeae; [5]): > 64 µg/mL
- MIC (N. gonorrhoeae; [6]): 2 µg/mL (≈ 11.1 µM)
- MIC (N. gonorrhoeae; [7]): > 64 µg/mL

SMILES: NS(=O)(=O)c1nnc(NC(=O)c2ccccc2)s1 [CAI 0012]
- MIC (N. gonorrhoeae; [2]): 2 µg/mL (≈ 7.03 µM)
- MIC (N. gonorrhoeae; [3]): 16 µg/mL (≈ 56.3 µM)
- MIC (N. gonorrhoeae; [4]): 4 µg/mL (≈ 14.1 µM)
- MIC (N. gonorrhoeae; [5]): > 64 µg/mL
- MIC (N. gonorrhoeae; [6]): 2 µg/mL (≈ 7.03 µM)
- MIC (N. gonorrhoeae; [7]): 64 µg/mL (≈ 225 µM)

SMILES: CCC(=O)Nc1nnc(S(N)(=O)=O)s1 [CAI 009]
- MIC (N. gonorrhoeae; [2]): 8 µg/mL (≈ 33.9 µM)
- MIC (N. gonorrhoeae; [3]): 16 µg/mL (≈ 67.7 µM)
- MIC (N. gonorrhoeae; [4]): 8 µg/mL (≈ 33.9 µM)
- MIC (N. gonorrhoeae; [5]): > 64 µg/mL
- MIC (N. gonorrhoeae; [6]): 16 µg/mL (≈ 67.7 µM)
- MIC (N. gonorrhoeae; [7]): 64 µg/mL (≈ 271 µM)

SMILES: NS(=O)(=O)c1nnc(NC(=O)CCc2ccccc2)s1 [CAI 0041]
- MIC (ATCC strain 700825; ATCC700825, In CO2): 4 µg/mL (≈ 12.8 µM)
- MIC (ATCC strain 700825; ATCC700825, In air): 0.5 µg/mL (≈ 1.6 µM)
